Measured values as given in the supplement of paper PMC11451515.

System: P12-Ichikawa
Assay: cell viability relative to DMSO control; higher = less cytotoxic
Conditions: 48 h
Procedure, shortened: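 NOMO1 or SEM cells were plated at 500 cells/well and P12-Ichikawa cells at 1000 cells/well in 1536-well plates (5 μl), after each leukemia line had been adapted for at least four passages in each medium. Pin dosing delivered library compounds in DMSO at 11 threefold concentrations, 47 μM to 0.79 nM. CellTiter-Glo One luminescence was read after 48 h at 37°C. Viability is reported as a per-plate percentage of DMSO wells, with cell-free wells as background.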

[1] = HPLM + 10% dialyzed FBS, 0.000781 µM
[2] = HPLM + 10% dialyzed FBS, 0.00234 µM
[3] = HPLM + 10% dialyzed FBS, 0.00702 µM
[4] = HPLM + 10% dialyzed FBS, 0.0211 µM
[5] = HPLM + 10% dialyzed FBS, 0.0632 µM
[6] = HPLM + 10% dialyzed FBS, 0.19 µM
[7] = HPLM + 10% dialyzed FBS, 0.569 µM
[8] = HPLM + 10% dialyzed FBS, 1.71 µM
[9] = HPLM + 10% dialyzed FBS, 5.12 µM
[10] = HPLM + 10% dialyzed FBS, 15.4 µM
[11] = HPLM + 10% dialyzed FBS, 46.1 µM
[12] = RPMI 5 mM glucose + 10% FBS, 0.000781 µM
[13] = RPMI 5 mM glucose + 10% FBS, 0.00234 µM
[14] = RPMI 5 mM glucose + 10% FBS, 0.00702 µM
[15] = RPMI 5 mM glucose + 10% FBS, 0.0211 µM
[16] = RPMI 5 mM glucose + 10% FBS, 0.0632 µM
[17] = RPMI 5 mM glucose + 10% FBS, 0.19 µM
[18] = RPMI 5 mM glucose + 10% FBS, 0.569 µM
[19] = RPMI 5 mM glucose + 10% FBS, 1.71 µM
[20] = RPMI 5 mM glucose + 10% FBS, 5.12 µM
[21] = RPMI 5 mM glucose + 10% FBS, 15.4 µM
[22] = RPMI 5 mM glucose + 10% FBS, 46.1 µM
[23] = RPMI 5 mM glucose + 10% dialyzed FBS, 0.000781 µM
[24] = RPMI 5 mM glucose + 10% dialyzed FBS, 0.00234 µM
[25] = RPMI 5 mM glucose + 10% dialyzed FBS, 0.00702 µM
[26] = RPMI 5 mM glucose + 10% dialyzed FBS, 0.0211 µM
[27] = RPMI 5 mM glucose + 10% dialyzed FBS, 0.0632 µM
[28] = RPMI 5 mM glucose + 10% dialyzed FBS, 0.19 µM
[29] = RPMI 5 mM glucose + 10% dialyzed FBS, 0.569 µM
[30] = RPMI 5 mM glucose + 10% dialyzed FBS, 1.71 µM
[31] = RPMI 5 mM glucose + 10% dialyzed FBS, 5.12 µM
[32] = RPMI 5 mM glucose + 10% dialyzed FBS, 15.4 µM
[33] = RPMI 5 mM glucose + 10% dialyzed FBS, 46.1 µM

| Structure (SMILES) | cell viability [1] [%] | cell viability [2] [%] | cell viability [3] [%] | cell viability [4] [%] | cell viability [5] [%] | cell viability [6] [%] | cell viability [7] [%] | cell viability [8] [%] | cell viability [9] [%] | cell viability [10] [%] | cell viability [11] [%] | cell viability [12] [%] | cell viability [13] [%] | cell viability [14] [%] | cell viability [15] [%] | cell viability [16] [%] | cell viability [17] [%] | cell viability [18] [%] | cell viability [19] [%] | cell viability [20] [%] | cell viability [21] [%] | cell viability [22] [%] | cell viability [23] [%] | cell viability [24] [%] | cell viability [25] [%] | cell viability [26] [%] | cell viability [27] [%] | cell viability [28] [%] | cell viability [29] [%] | cell viability [30] [%] | cell viability [31] [%] | cell viability [32] [%] | cell viability [33] [%] |
| --- | --- | --- | --- | --- | --- | --- | --- | --- | --- | --- | --- | --- | --- | --- | --- | --- | --- | --- | --- | --- | --- | --- | --- | --- | --- | --- | --- | --- | --- | --- | --- | --- | --- |
| O=C(CCCCCCC(=O)Nc1ccccc1)NO | 87.9 | 99.3 | 100 | 98.4 | 110 | 109 | 105 | 98.8 | 39 | 5.48 | 3.81 | 91.9 | 97 | 108 | 107 | 110 | 104 | 111 | 96.8 | 23.3 | 4.38 | 3.81 | 92.4 | 100 | 98.1 | 109 | 107 | 103 | 102 | 95.6 | 19.7 | 5.15 | 3.53 |
| C[S+]([O-])c1ccc(-c2nc(-c3ccc(F)cc3)c(-c3ccncc3)[nH]2)cc1 (stereo unspecified) | 103 | 102 | 97.3 | 111 | 109 | 108 | 107 | 93.6 | 53.5 | 3.78 | 1.78 | 93.8 | 92.2 | 103 | 99 | 102 | 92.8 | 102 | 64.2 | 46.6 | 3.17 | 1.83 | 96.6 | 103 | 99.7 | 97.3 | 98.7 | 99.4 | 98.6 | 74.2 | 45.4 | 3.69 | 2.1 |
| COc1cc(OC)c(NC(=O)Nc2cc(C)on2)cc1Cl | 94.9 | 98.8 | 110 | 99.6 | 101 | 106 | 102 | 106 | 107 | 110 | 106 | 90.3 | 95.9 | 96.8 | 98.2 | 108 | 104 | 95.5 | 106 | 107 | 102 | 101 | 98.1 | 90.7 | 97 | 97.8 | 96.5 | 96.5 | 106 | 102 | 96.2 | 91.7 | 92 |
| CN(C)CCN(Cc1ccc(Cl)cc1)c1ccccn1.Cl | 89 | 97.1 | 95.9 | 97.1 | 96.9 | 94.9 | 97.5 | 101 | 95.2 | 96.4 | 101 | 80.3 | 80.4 | 85.4 | 95.1 | 80.5 | 87.9 | 90.4 | 87.7 | 90.4 | 85.2 | 82.4 | 83 | 82.3 | 84.4 | 87.9 | 84.2 | 79.2 | 82.4 | 80.3 | 83.3 | 78.8 | 73.2 |
| OC1=CC=C(C=C1)\C2=C\C(=O)C3=C(O2)C=C(O)C=C3O | 110 | 112 | 113 | 119 | 114 | 120 | 116 | 108 | 107 | 108 | 109 | 111 | 109 | 112 | 111 | 105 | 106 | 104 | 105 | 104 | 109 | 96.6 | 117 | 120 | 119 | 122 | 118 | 113 | 115 | 109 | 110 | 103 | 96.4 |
| NC\1=N\C(=O)N(\C=C1)[C@H]\2[C@H](O)[C@H](O)C(=C2F)\CO | 95.2 | 106 | 104 | 105 | 105 | 106 | 104 | 60 | 28 | 19.3 | 16.5 | 89.4 | 96.8 | 96.3 | 106 | 103 | 114 | 101 | 95.7 | 47.8 | 29.1 | 16.9 | 91.8 | 114 | 114 | 116 | 115 | 108 | 100 | 89.4 | 67.9 | 23.4 | 11.4 |
| COC1=CC2=C(C=C1OC)[C@H]3[C@@H](CO2)OC4=C(C=CC5=C4\C=C/C(C)(C)O5)C3=O | 95.5 | 103 | 96.9 | 99.9 | 93.5 | 102 | 93.5 | 69.7 | 67.7 | 65.6 | 2.52 | 89 | 94.9 | 98.9 | 95.9 | 69.6 | 80 | 62.2 | 52.1 | 48.3 | 46.5 | 3.34 | 84.1 | 89.1 | 93.8 | 88.9 | 74.4 | 79.1 | 69.3 | 62.1 | 58.5 | 60.9 | 3.49 |
| C#C[C@]1(O)CC[C@H]2[C@@H]3CCc4cc(OC)ccc4[C@H]3CC[C@@]21C | 118 | 104 | 111 | 106 | 110 | 98.5 | 111 | 102 | 101 | 109 | 98.5 | 110 | 101 | 112 | 106 | 113 | 106 | 106 | 108 | 90.7 | 111 | 97.6 | 103 | 101 | 100 | 107 | 114 | 111 | 107 | 107 | 101 | 102 | 97.6 |
| O=c1[nH]cnc2c1ncn2[C@H]1CC[C@@H](CO)O1 | 95.9 | 101 | 107 | 102 | 99.6 | 105 | 108 | 112 | 105 | 99.6 | 74.1 | 83.3 | 97.3 | 94.6 | 109 | 96.1 | 101 | 104 | 108 | 102 | 91.7 | 65.5 | 83.7 | 101 | 94.3 | 90.1 | 96.8 | 96.5 | 96 | 104 | 97.1 | 84 | 67.1 |
| CN(C)c1ccc2cc(C(=O)N[C@@H](CCCNC(=N)CCl)C(=O)NCc3ccccc3)ccc2c1 | 103 | 113 | 105 | 113 | 112 | 103 | 108 | 107 | 104 | 93.9 | 19 | 121 | 111 | 97.9 | 115 | 106 | 116 | 122 | 116 | 104 | 93 | 9.92 | 109 | 108 | 108 | 109 | 110 | 101 | 99.6 | 97.1 | 106 | 92 | 8.85 |
| CN[C@@H]1C[C@H]2O[C@@](C)([C@@H]1OC)n1c3ccccc3c3c4c(c5c6ccccc6n2c5c31)C(=O)N[C@H]4O | 80.5 | 86.5 | 85.5 | 89.3 | 84.7 | 75.9 | 63.7 | 22.5 | 16.8 | 23.2 | 7.88 | 80 | 78 | 83.8 | 84.2 | 78.4 | 63.4 | 44.5 | 12.8 | 12.8 | 14.8 | 15 | 84.7 | 90.4 | 85.9 | 85.8 | 81.2 | 55.4 | 62 | 29 | 14 | 17.7 | 11.5 |
| CC(C)(C)c1cc(C(=O)O)c(NC(=O)Nc2ccc3[nH]ncc3c2)s1 | 93.9 | 102 | 88.8 | 97.4 | 91.7 | 91.5 | 85.9 | 89.6 | 89.9 | 85.5 | 80.6 | 92.9 | 90.5 | 92.4 | 97.8 | 91.4 | 98.4 | 87.9 | 79.6 | 88.2 | 84.7 | 73.1 | 93.5 | 96.7 | 93 | 97.8 | 97.2 | 88.8 | 90 | 86.2 | 87.8 | 87.3 | 91 |
| O=C1NC(O)CCN1[C@@H]1O[C@H](CO)[C@@H](O)[C@H]1O (stereo partly specified) | 118 | 127 | 120 | 116 | 128 | 129 | 122 | 106 | 102 | 110 | 112 | – | – | – | – | – | – | – | – | – | – | – | 118 | 119 | 131 | 124 | 116 | 120 | 120 | 121 | 110 | 115 | 107 |
| OCCCNc1cc(-c2ccnc(Nc3cccc(Cl)c3)n2)ccn1 | 98 | 99.8 | 107 | 109 | 110 | 113 | 65.4 | 13.6 | 10.3 | 8.26 | 7.93 | 102 | 105 | 105 | 104 | 118 | 87.9 | 55.6 | 12.1 | 7.63 | 8.26 | 5.79 | 94.9 | 106 | 106 | 119 | 113 | 100 | 43.7 | 11.9 | 10.5 | 11 | 9.06 |
| CCCCCCCCc1ccc(CCC(N)(CO)CO)cc1 | 113 | 111 | 113 | 104 | 108 | 112 | 101 | 107 | 76.1 | 84.1 | 7.48 | 118 | 114 | 113 | 114 | 119 | 115 | 104 | 101 | 80.8 | 60 | 3.8 | 105 | 110 | 112 | 109 | 103 | 111 | 90.2 | 114 | 87.2 | 68 | 3.18 |
| CC(=O)[C@H]1CC[C@H]2[C@@H]3CCC4=CC(=O)CC[C@]4(C)[C@H]3CC[C@]12C | 106 | 114 | 120 | 112 | 118 | 115 | 125 | 118 | 109 | 94.7 | 110 | – | – | – | – | – | – | – | – | – | – | – | 98.1 | 112 | 108 | 118 | 120 | 125 | 120 | 116 | 105 | 91.9 | 114 |
